# Assay results reported in patent publication US20230323410A1, “BACTERIAL CELLS AND METHODS FOR PRODUCTION OF 2-FLUORO-CIS,CIS-MUCONATE” (priority 2020, published 2023).
# Entries after “also recorded” stand apart in the source; their conditions may differ. Like-named read-outs stand apart in the source and are kept apart here.
# Columns and labels:
# Pmuc3 pSEVA228 = format: cell-based, Pseudomonas putida
# XylS/Pm = format: cell-based, P. putida KT2440; details: for GFP expression from Pm relative to the one brought about by 1.0 mM 3-mBz: 5.0 mM inducer; for GFP expression under Pm(ML1-17) control relative to the expression provided by Pm: compound as inducer
# CatR/Pcat = format: cell-based, P. putida KT2440
# BenR/Pben = format: cell-based, P. putida KT2440; details: for increase of induction compared to the uninduced system: 5 mM
# P. putida KT2440 = details: for growth rate as share of the maximum rate on glucose: 20 mM
# P. knackmussii [1] = experiment: Microtiter plate cultivation: growth with metabolites of the bioconversion; details: for growth rate as share of the μmax observed on only glucose: 15 mM
# Pmuc10 = experiment: as above; details: for Maximum growth rate μmax: Example 6 (improved method)
# P. knackmussii [2] = experiment: Shaken flask fermentation with 10 mM 2-FBz or 3-FBz; format: cell-based, Pseudomonas knackmussii
# [3] = Example 1, 30 mM as sole carbon source
# [4] = Example 6 (improved method), 30 mM as sole carbon source
# [5] = Example 1, 30 mM glucose, 10 mM additive
# [6] = Example 1, 30 mM glucose, 15 mM additive
# [7] = Example 1, 30 mM glucose, 20 mM additive
# [8] = Example 6 (improved method), 30 mM glucose, 10 mM additive
# [9] = Example 6 (improved method), 30 mM glucose, 15 mM additive
# [10] = Example 6 (improved method), 30 mM glucose, 20 mM additive
# [11] = Example 1, 30 mM glucose, 5.0 mM additive
# [12] = Example 6 (improved method), 30 mM glucose, 5.0 mM additive
# [13] = Example 1, 30 mM glucose, 0.5 mM additive
# [14] = Example 1, 30 mM glucose, 1.0 mM additive
# [15] = Example 1, 30 mM glucose, 2.0 mM additive
# [16] = Example 6 (improved method), 30 mM glucose, 0.5 mM additive
# [17] = Example 6 (improved method), 30 mM glucose, 2.0 mM additive
# [18] = Example 6 (improved method), 30 mM glucose, 1.0 mM additive
structure (smiles),measurement,setting,value
"O=C([O-])c1ccccc1.[K+] [K-benzoate, potassium benzoate]",Maximum growth rate μmax,"Pmuc3 pSEVA228; Example 1, 30 mM K-benzoate as carbon source, 0.5 mM 3-mBz",0.16 h⁻¹
same,Maximum growth rate μmax,"Pmuc3 pSEVA228; Example 6 (improved method), 30 mM K-benzoate as carbon source, 0.5 mM 3-mBz",0.16 h⁻¹
same,GFP expression from Pm relative to the one brought about by 1.0 mM 3-mBz,XylS/Pm,20%
same,GFP fluorescence as compared to the induction by 3-FBz,CatR/Pcat; 5 mM,35%
same,increase in GFP expression over basal expression,BenR/Pben; 2.0 mM,No further increase
same,increase of induction compared to the uninduced system,BenR/Pben,70%
same,Maximum growth rate μmax,P. putida KT2440; [3],0.37 h⁻¹
same,Maximum growth rate μmax,P. putida KT2440; [4],0.62 h⁻¹
same,Maximum growth rate μmax,P. knackmussii [1]; [3],no growth
same,Maximum growth rate μmax,P. knackmussii [1]; [4],no growth
same,Maximum growth rate μmax,Pmuc10; 30 mM as sole carbon source,0.53 h⁻¹
"O=C(O)c1ccccc1F [Strain 2-FBz, 2-fluorobenzoic acid]",qs,"P. knackmussii [2]; 10 mM 2-FBz, initial about 20 h, Example 1",0.26 mmol gCDW^−1 h^−1
same,qs,"P. knackmussii [2]; 10 mM 2-FBz, initial about 20 h, Example 6",0.81 mmol gCDW^−1 h^−1
same,growth rate as share of the maximum rate on glucose,P. putida KT2440; Example 1,80%
same,Maximum growth rate μmax,P. putida KT2440; [5],0.57 h⁻¹
same,Maximum growth rate μmax,P. putida KT2440; [6],0.53 h⁻¹
same,Maximum growth rate μmax,P. putida KT2440; [7],0.48 h⁻¹
same,Maximum growth rate μmax,P. putida KT2440; [8],0.56 h⁻¹
same,Maximum growth rate μmax,P. putida KT2440; [9],0.52 h⁻¹
same,Maximum growth rate μmax,P. putida KT2440; [10],0.46 h⁻¹
same,growth rate as share of the maximum rate on glucose,P. putida KT2440; Example 6,53%
same,growth rate as share of the μmax observed on only glucose,P. knackmussii [1]; Example 1,58%
same,Maximum growth rate μmax,P. knackmussii [1]; [5],0.25 h⁻¹
same,Maximum growth rate μmax,P. knackmussii [1]; [6],0.22 h⁻¹
same,Maximum growth rate μmax,P. knackmussii [1]; [7],unable to grow at all
same,Maximum growth rate μmax,"P. knackmussii [1]; Example 1, 30 mM glucose, 20 mM additive, listed as K-2-F-benzoate",no growth
same,Maximum growth rate μmax,P. knackmussii [1]; [8],0.25 h⁻¹
same,Maximum growth rate μmax,P. knackmussii [1]; [9],0.19 h⁻¹
same,Maximum growth rate μmax,P. knackmussii [1]; [10],unable to grow at all
same,Maximum growth rate μmax,"P. knackmussii [1]; Example 6 (improved method), 30 mM glucose, 20 mM additive, listed as K-2-F-benzoate",no growth
same,growth rate as share of the μmax observed on only glucose,P. knackmussii [1]; Example 6,54%
"O=C(O)c1cccc(F)c1 [Strain 3-FBz, 3-fluorobenzoic acid]",Maximum growth rate μmax,Pmuc3 pSEVA228; [5],0.33 h⁻¹
same,Maximum growth rate μmax,Pmuc3 pSEVA228; [6],0.32 h⁻¹
same,Maximum growth rate μmax,Pmuc3 pSEVA228; [7],0.30 h⁻¹
same,Maximum growth rate μmax,Pmuc3 pSEVA228; [8],0.33 h⁻¹
same,Maximum growth rate μmax,Pmuc3 pSEVA228; [9],0.32 h⁻¹
same,Maximum growth rate μmax,Pmuc3 pSEVA228; [10],0.30 h⁻¹
same,qs,"P. knackmussii [2]; 10 mM 3-FBz, Example 1",0.090 mmol gCDW^−1 h^−1
same,qs,"P. knackmussii [2]; 10 mM 3-FBz, Example 6",1.01 mmol gCDW^−1 h^−1
same,expression strength,XylS/Pm; 1.0 mM,"close to the basal, uninduced expression"
same,GFP expression from Pm relative to the one brought about by 1.0 mM 3-mBz,XylS/Pm,7%
same,GFP expression under Pm(ML1-17) control relative to the expression provided by Pm,XylS/Pm,70%
same,induction,CatR/Pcat; 0.5 mM,most strongly and fully induced
same,increase in GFP expression over basal expression,BenR/Pben; 1.0 mM,No further increase
same,increase of induction compared to the uninduced system,BenR/Pben,70%
same,maximum concentration in the presence of which the strain was able to grow,"P. putida KT2440; 30 mM glucose, substantially reduced μmax",10 mM
same,Maximum growth rate μmax,P. putida KT2440; [11],0.36 h⁻¹
same,Maximum growth rate μmax,P. putida KT2440; [5],0.13 h⁻¹
same,Maximum growth rate μmax,P. putida KT2440; [6],no growth
same,Maximum growth rate μmax,P. putida KT2440; [7],no growth
same,Maximum growth rate μmax,P. putida KT2440; [12],0.25 h⁻¹
same,Maximum growth rate μmax,P. putida KT2440; [8],0.13 h⁻¹
same,Maximum growth rate μmax,P. putida KT2440; [9],no growth
same,Maximum growth rate μmax,P. knackmussii [1]; [11],almost completely impaired
same,Maximum growth rate μmax,"P. knackmussii [1]; Example 1, 30 mM glucose, 5.0 mM additive, listed as K-3-F-benzoate",0.01 h⁻¹
same,Maximum growth rate μmax,P. knackmussii [1]; [5],no growth
same,Maximum growth rate μmax,P. knackmussii [1]; [6],no growth
same,Maximum growth rate μmax,P. knackmussii [1]; [7],no growth
same,Maximum growth rate μmax,P. knackmussii [1]; [12],almost completely impaired
same,Maximum growth rate μmax,"P. knackmussii [1]; Example 6 (improved method), 30 mM glucose, 5.0 mM additive, listed as K-3-F-benzoate",0.04 h⁻¹
same,Maximum growth rate μmax,P. knackmussii [1]; [8],no growth
same,Maximum growth rate μmax,P. knackmussii [1]; [9],no growth
same,Maximum growth rate μmax,P. knackmussii [1]; [10],no growth
same,concentration up to which no toxic effects were observed,"Pmuc10; 30 mM glucose, FIG. 13",≤ 20000 µM
same,highest concentration at which the strain was able to produce biomass,"Pmuc10; 30 mM glucose, FIG. 13, strongly reduced rate and maximum biomass concentration",≤ 50 mM
same,Maximum growth rate μmax,"Pmuc10; 30 mM glucose, 10 mM additive",0.45 h⁻¹
same,Maximum growth rate μmax,"Pmuc10; 30 mM glucose, 20 mM additive",0.47 h⁻¹
same,Maximum growth rate μmax,"Pmuc10; 30 mM glucose, 30 mM additive",0.27 h⁻¹
same,Maximum growth rate μmax,"Pmuc10; 30 mM glucose, 40 mM additive",0.24 h⁻¹
same,Maximum growth rate μmax,"Pmuc10; 30 mM glucose, 50 mM additive",0.20 h⁻¹
"Oc1cccc(F)c1O [Strain 3-FC, 3-fluorocatechol]",Maximum growth rate μmax,Pmuc3 pSEVA228; [13],0.61 h⁻¹
same,Maximum growth rate μmax,Pmuc3 pSEVA228; [14],0.48 h⁻¹
same,Maximum growth rate μmax,Pmuc3 pSEVA228; [15],0.22 h⁻¹
same,Maximum growth rate μmax,Pmuc3 pSEVA228; [16],0.74 h⁻¹
same,Maximum growth rate μmax,Pmuc3 pSEVA228; [17],0.22 h⁻¹
same,Maximum growth rate μmax,P. putida KT2440; [13],0.72 h⁻¹
same,Maximum growth rate μmax,P. putida KT2440; [14],0.65 h⁻¹
same,Maximum growth rate μmax,P. putida KT2440; [15],0.39 h⁻¹
same,Maximum growth rate μmax,P. putida KT2440; [16],0.71 h⁻¹
same,Maximum growth rate μmax,P. putida KT2440; [18],0.68 h⁻¹
same,Maximum growth rate μmax,P. putida KT2440; [17],0.36 h⁻¹
same,Maximum growth rate μmax,P. putida KT2440; [12],no growth
same,Maximum growth rate μmax,P. knackmussii [1]; [13],0.28 h⁻¹
same,Maximum growth rate μmax,P. knackmussii [1]; [14],0.17 h⁻¹
same,Maximum growth rate μmax,P. knackmussii [1]; [15],0.11 h⁻¹
same,Maximum growth rate μmax,P. knackmussii [1]; [16],0.32 h⁻¹
same,Maximum growth rate μmax,P. knackmussii [1]; [18],0.31 h⁻¹
same,Maximum growth rate μmax,P. knackmussii [1]; [17],0.12 h⁻¹
same,Maximum growth rate μmax,"Pmuc10; 30 mM glucose, 2.0 mM additive",no growth
"Cc1cccc(C(=O)O)c1 [Strain 3-mBz, 3-methyl benzoate, reference compound]",GFP expression under Pm(ML1-17) control relative to the expression provided by Pm,XylS/Pm,70%
same,induction by 1 mM as compared to 5 mM of the inducer,XylS/Pm; data not shown,94%
same,response,CatR/Pcat; 1.0 mM,no response at all
same,increase in GFP expression over basal expression,BenR/Pben; 1.0 mM,No further increase
"Oc1ccc(F)cc1O [Strain 4-FC, 4-fluorocatechol]",Maximum growth rate μmax,Pmuc3 pSEVA228; [13],0.55 h⁻¹
same,Maximum growth rate μmax,Pmuc3 pSEVA228; [14],0.54 h⁻¹
same,Maximum growth rate μmax,Pmuc3 pSEVA228; [15],0.35 h⁻¹
same,Maximum growth rate μmax,Pmuc3 pSEVA228; [16],0.55 h⁻¹
same,Maximum growth rate μmax,Pmuc3 pSEVA228; [18],0.50 h⁻¹
same,Maximum growth rate μmax,Pmuc3 pSEVA228; [17],0.28 h⁻¹
same,Maximum growth rate μmax,P. putida KT2440; [13],0.77 h⁻¹
same,Maximum growth rate μmax,P. putida KT2440; [14],0.64 h⁻¹
same,Maximum growth rate μmax,P. putida KT2440; [15],0.48 h⁻¹
same,Maximum growth rate μmax,P. putida KT2440; [16],0.72 h⁻¹
same,Maximum growth rate μmax,P. putida KT2440; [18],0.52 h⁻¹
same,Maximum growth rate μmax,P. putida KT2440; [17],0.34 h⁻¹
same,Maximum growth rate μmax,P. putida KT2440; [12],no growth
same,Maximum growth rate μmax,P. knackmussii [1]; [13],0.34 h⁻¹
same,Maximum growth rate μmax,P. knackmussii [1]; [14],0.32 h⁻¹
same,Maximum growth rate μmax,P. knackmussii [1]; [15],0.25 h⁻¹
same,Maximum growth rate μmax,P. knackmussii [1]; [16],0.31 h⁻¹
same,Maximum growth rate μmax,P. knackmussii [1]; [18],0.26 h⁻¹
same,Maximum growth rate μmax,P. knackmussii [1]; [17],0.17 h⁻¹
"Oc1ccccc1O [catechol, pyrocatechol]",Maximum growth rate μmax,Pmuc3 pSEVA228; [15],0.86 h⁻¹
same,Maximum growth rate μmax,Pmuc3 pSEVA228; [16],0.62 h⁻¹
same,Maximum growth rate μmax,Pmuc3 pSEVA228; [18],0.74 h⁻¹
same,Maximum growth rate μmax,Pmuc3 pSEVA228; [17],0.81 h⁻¹
same,Maximum growth rate μmax,P. putida KT2440; [13],0.72 h⁻¹
same,Maximum growth rate μmax,P. putida KT2440; [14],0.77 h⁻¹
same,Maximum growth rate μmax,P. putida KT2440; [15],0.78 h⁻¹
same,increase of μmax with increasing concentration,"P. putida KT2440; Example 1, up to 2 mM",up to 30%
same,Maximum growth rate μmax,P. putida KT2440; [16],0.69 h⁻¹
same,Maximum growth rate μmax,P. putida KT2440; [18],0.71 h⁻¹
same,Maximum growth rate μmax,P. putida KT2440; [17],0.68 h⁻¹
same,Maximum growth rate μmax,P. knackmussii [1]; [13],0.36 h⁻¹
same,Maximum growth rate μmax,P. knackmussii [1]; [14],0.33 h⁻¹
same,Maximum growth rate μmax,P. knackmussii [1]; [15],0.31 h⁻¹
same,Maximum growth rate μmax,P. knackmussii [1]; [16],0.36 h⁻¹
same,Maximum growth rate μmax,P. knackmussii [1]; [18],0.33 h⁻¹
same,Maximum growth rate μmax,P. knackmussii [1]; [17],0.29 h⁻¹
same,toxic effect,P. knackmussii [1]; up to 2 mM,slightly toxic effect; also recorded: Only a little toxic effect
